The target of assay [1] is T1, human JMJD7 (Homo sapiens, UniProt P0C870).
T1 construct: human JMJD7 (residues 1–316) with an N‐terminal His6‐tag; His6 (N); made in house; host or cells: Escherichia coli Rosetta (DE3)
Nature of the assay: Q-TOF-MS protein-observed analysis of intact JMJD7 (adduct formation). The note with it: 2 μM JMJD7, 20 μM peptide; for JMJD7-peptide adduct formation: Q-TOF-MS of intact protein. It is filed as binding. How it is done: To investigate inhibition by the DRG1‐Cys/Sec peptides, we performed protein‐observed analysis of JMJD7 (2 μM) in the presence of the DRG1‐Cys/Sec peptides (20 μM) under likely non‐denaturing conditions (Figure 7g). The observed masses correspond to the JMJD7‐DRG1‐Cys (40.79 kDa) and JMJD7‐DRG1‐Sec (40.84 kDa) adducts, implying that DRG1‐Cys/Sec might inhibit JMJD7 via formation of S‐S/Se‐S bonds, plausibly with Cys132, though further work is required to validate this (Figure 7g).

The target of assay [2] is T1, human JMJD7. As to the kind of experiment: MALDI-TOF MS JMJD7 inhibition assay. The class given is biochemical.
Assay [3] deals with T1, human JMJD7. Nature of the assay: MALDI-TOF MS JMJD7 inhibition assay. The note with it: 10 and 50 μM peptide, DTT or TCEP (1 mM) as reductant in the reaction buffer. It is filed as biochemical. On the procedure: Due to signal overlaps between some DRG1 peptides and the reference DRG1‐Lys substrate, we synthesized a shorter reference substrate peptide (DRG1‐Lys, residues 17–40) for use in the MS‐based inhibition assays. Synthetic DRG1 peptides (residues 16–40, 10 or 50 μM) were preincubated with JMJD7 (200 nM) for 15 min, after which time the DRG1‐Lys substrate (residues 17–40, 5 μM), 2OG (10 μM), FAS […] and LAA […] were added, and the reaction were carried out for 25 min at room temperature. Most of the DRG1 peptides were not active as JMJD7 inhibitors at 10 μM (residual activity of JMJD7 >50%) (Figure S41a,b), with exceptions including the DRG1‐Orn, DRG1‐hGln and DRG1‐4pyrA peptides.
Single point screening assays were as follows; initially, JMJD7 (200 nM) and substituted DRG1 peptide (10 or 50 μM) were incubated for 15 min, followed by the addition of a mixture of the DRG1‐Lys substrate (5 μM), 2OG (10 μM), FAS (10 μM) and LAA (100 μM) in a final volume of 50 μL in Tris‐buffer (pH 7.5) and incubated for additional 25 min at room temperature. […] Reactions were quenched by the addition of 10% (v/v) formic acid and mixed 1:1 with CHCCA matrix (1:1 v/v MeCN:H2O) then analyzed by MALDI‐TIMS‐TOF MS. JMJD7 activity was determined by calculating the integral of hydroxylated peptide and normalized to a control reaction in absence of potential inhibitory peptides. Every experiment was performed in duplicate (n = 2), error bars are reported as SE.

The target of assay [4] is T1, human JMJD7. As to the kind of experiment: NMR assay of JMJD7-catalyzed reaction of DRG1 peptides. Conditions: 200 μM peptide, 10 μM JMJD7, 30 μM FAS, 200 μM 2OG, 500 μM LAA, phosphate buffer 10% D2O, pH 7.4, 1H NMR time-course. It is filed as biochemical. How it is done: To validate the fragmentation of the product on hydroxylation of the DRG1‐CysNH2 peptide, we performed NMR studies focusing on the appearance of small molecules, comparing the results with the DRG1‐Lys substrate. Reactions were carried out by incubating the DRG1 peptide (200 μM) in the presence or absence of enzyme (10 μM JMJD7, 30 μM FAS, 200 μM 2OG, 500 μM LAA, phosphate buffer in 10% D2O v/v, pH 7.4). […] The observation of a DRG1‐CysNH2 derived product with two methylene groups (triplets, δ ~ 3.13 ppm, δ ~ 2.75 ppm) together with spiking using a standard solution confirmed the formation of cysteamine (Figure 4c (1), Figure S35a). […] A loss in intensity of the cysteamine peaks was observed over time, possibly indicating oxidation and/or interactions with JMJD7 (Figure S35).
Stock solutions of L‐ascorbate (LAA; 500 mM), 2‐oxoglutarate (2OG; 20 mM), ferrous ammonium sulphate (FAS; 100 mM), and (trimethylsilyl)propionic‐2,2,3,3‐d 4 (TSP‐d 4; 8 mM) were freshly prepared in water on the day NMR assays were run. These stock solutions of LAA, FAS, and 2OG were diluted using aqueous buffer (50 mM sodium phosphate, pH 7.4, 10% v/v D2O) to give FAS (0.3 mM), 2OG (2 mM), and LAA (5 mM). DRG1 peptides were solubilized in buffer to a final concentration of 2 mM for use in NMR assays. […] Turnover was quantified using TSP‐d 4 as an internal standard.

For assay [5], the target named is T1, human JMJD7. As to the kind of experiment: LC-MS assay of JMJD7-catalyzed hydroxylation/oxidation of DRG1 peptides. The class given is biochemical. The note with it: 10 μM 2OG. On the procedure: Initial assays were carried out by incubation of purified recombinant (Markolovic et al., [2018]) human JMJD7 (2 μM) in the presence of a DRG1 derived peptide (10 μM), 2OG (10 μM), ferrous ammonium sulfate (FAS, 10 μM), and L‐ascorbate (LAA, 100 μM) in Tris buffer at pH 7.5 for 2 h at room temperature. Potential conversion to a hydroxylated product (+16 Da mass shift) was monitored by liquid‐chromatography‐mass‐spectrometry (LC–MS). […] The assay results also implied that DRG1‐Orn was hydroxylated, but to a lower extent (~21%) than DRG1‐Lys. […] The alcohol‐containing peptide hydroxynorleucine (DRG1‐HNle), was hydroxylated at relatively low levels (~24%), implying that H‐bonding interactions and positive charge of the N^ɛ‐amino group of lysine are important for efficient binding and catalysis, but that a neutral alcohol can still be accommodated at the active site (Figure 3f) (Markolovic et al., [2018]).
All reagents were procured from Sigma Aldrich. 2‐Oxoglutarate (2OG, 10 mM) and L‐ascorbic acid (LAA, 50 mM) solutions were prepared freshly by dissolving the solids in deionized water. Ferrous ammonium sulfate (FAS) solution was prepared freshly by dissolving FAS at 400 mM in 20 mM HCl with subsequent dilution to 1 mM using deionized water. JMJD7 assays using DRG1 (16–40) based peptides were performed with the following conditions: (i) 2 or 5 μM JMJD7, 10 μM DRG1 peptide, 100 μM LAA, 10 μM FAS, 10 μM 2OG in mM 50 Tris‐buffer (pH 7.5), (ii) 2 μM JMJD7, 10 μM DRG1 peptide, 100 μM LAA, 10 μM FAS, 20 μM 2OG in mM 50 Tris‐buffer (pH 7.5). Reactions were initiated by addition of enzyme to the cosubstrate/substrate solution in a final reaction volume of 50 μL with 2 h incubation at room temperature. A positive control reaction containing enzyme and a validated peptide substrate was included in all screening studies. After 2 h, reactions were stopped by addition of 5 μL of 10% (v/v) LC–MS grade formic acid (Fisher Scientific) and transferred to a 96 well plate (Agilent). Intact mass peptide analysis was performed by LC–MS using an Agilent 1290 infinity II LC system equipped with an Agilent 1290 multisampler and an Agilent 1290 high speed pump and connected to an Agilent 6550 accurate mass iFunnel quadrupole time of flight (Q‐TOF) mass spectrometer. The reaction mixture (4 μL) was injected and loaded onto a ZORBAX RRHD Eclipse Plus C18 column (Agilent). Solvent A consisted of LC–MS grade water containing 0.1% (v/v) formic acid and solvent B consisted of MeCN containing 0.1% (v/v) formic acid. Peptides were separated using a step wise gradient (0 min – 95% solvent A, 1.0 min – 80% solvent A, 3.0 min – 45% solvent A, 4.0 min – 45% solvent A, 5.0 min – 0% solvent A, 6.0 min – 0% solvent A, 7.0 min – 95% solvent A). This was followed by a 3 min elution with 95% solvent A to re‐equilibrate the column. Flow rates were 0.2 mL/min. The mass spectrometer was operated in the positive ion mode with a drying gas temperature (280°C), drying gas flow rate (13 L min^−1), nebulizer pressure (40 psig), sheath gas temperature (350°C), sheath gas flow rate (12 L min^−1), capillary voltage (4000 V), nozzle voltage (1000 V). Data were analyzed using Agilent MassHunter Qualitative Analysis (Version B.07.00) software.

Assay [6] has as its target T1, human JMJD7. Nature of the assay: SPE-MS time-course and steady-state kinetics of JMJD7-catalyzed hydroxylation. It is filed as biochemical. The note with it: 1.0 μM peptide, 50 nM JMJD7, SPE-MS time-course. How it is done:
Having shown that introduction of γ‐thialysine and γ‐azalysine residues into DRG1 peptides generates substrates that are efficiently hydroxylated by JMJD7, giving nascent products that fragment to give formylglycine, we explored whether these two peptides could compete with the DRG1‐Lys substrate for JMJD7 catalysis. The reactions of DRG1‐Lys, DRG1‐CysNH2 and DRG1‐LysN (1.0 μM) by JMJD7 (50 nM) were investigated as a function of time using SPE‐MS assays.
To quantify the relative efficiencies of DRG1‐Lys and the substrate analog DRG1‐LysE, we carried out kinetics analyses using SPE‐MS assays as the levels of JMJD7‐catalyzed hydroxylation were sufficient for these two substrates.
JMJD7 turnover assays for kinetic studies were performed in 96‐well polypropylene assay plates with 1.0 mL total reaction volume using a series of concentrations of the DRG1 peptide (0.1–5.0 μM), 2OG (20 μM), FAS (10 μM), LAA (100 μM). Reactions were initiated by the addition of JMJD7 (100 nM). MS‐analyses were performed using a RapidFire RF 365 high‐throughput sampling robot (Agilent) attached to an iFunnel Agilent 6550 accurate mass quadrupole time‐of‐flight (Q‐TOF) mass spectrometer operated in the positive ionization mode. The RapidFire RF 365 high‐throughput sampling robot was programmed to aspirate samples from the reaction mixture at the indicated time intervals. Assay samples were loaded onto a C4 solid phase extraction (SPE) cartridge and peptides were eluted using given previous protocols (Tumber et al., [2023]). The % conversion of the hydroxylation reaction were calculated from the ion chromatogram data by integrating peak areas using RapidFire Integrator 4.3.0 software (Agilent).

Assay [7] concerns the target human Jumonji-C (JmjC) domain-containing protein 7 (JMJD7), residues 1-316 (human) (UniProt P0C870).

Where two headings read alike, the source gives them in different places. Ends that are not written are not given here. Bounds are passed on as bounds.

T1 sequence (P0C870 whole entry, the tested form may be a part): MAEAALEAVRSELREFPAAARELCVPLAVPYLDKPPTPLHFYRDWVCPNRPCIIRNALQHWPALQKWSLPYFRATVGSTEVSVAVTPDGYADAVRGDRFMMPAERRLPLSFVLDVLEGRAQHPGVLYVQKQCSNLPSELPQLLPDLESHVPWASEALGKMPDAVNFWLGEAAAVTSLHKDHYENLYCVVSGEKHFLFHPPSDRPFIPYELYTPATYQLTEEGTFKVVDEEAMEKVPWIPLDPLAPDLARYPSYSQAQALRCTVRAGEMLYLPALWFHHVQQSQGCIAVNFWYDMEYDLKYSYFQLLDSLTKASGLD
Chain of human Jumonji-C (JmjC) domain-containing protein 7 (JMJD7), residues 1-316 (human) (P0C870 whole entry, the tested form may be a part): as above

Consider “ARTQKNCATAHHLGLLKARLAKLRR-NH2 [DRG1‐Cys]”, for which, on human JMJD7 [1] (DTT in the buffer, Q-TOF-MS), the “JMJD7-peptide cross-linking in the presence of DTT” value was “no cross‐linking is observed”. Further, on human JMJD7 [1], the JMJD7-peptide adduct formation result is “observed in lower extent at 1 min”. In addition, the IC50 (as a rule, the concentration that gives 50% inhibition) was 1.25 µM at human JMJD7 [2] (200 nM JMJD7 preincubated 15 min with peptide (1 nM–150 μM), 5 μM DRG1-Lys (17–40) substrate, 10 μM 2OG, 25 min, room temperature, Tris pH 7.5, MALDI MS, duplicate (n = 2), ± SE, read-out: IC50 (JMJD7 inhibition, with 15 min preincubation)) and 16 µM on human JMJD7 [2] (same assay conditions but without preincubation, read-out: IC50 (JMJD7 inhibition, without preincubation)). For the same molecule, at human JMJD7 [3], the “single point inhibition of JMJD7 under reducing conditions” value is “lack inhibitory activity”.
In the case of “ARTQKNCysNH2ATAHHLGLLKARLAKLRR [DRG1‐CysNH2, 25-mer DRG1 (16–40) peptide with γ-thialysine at position 22]”, at human JMJD7 [4], the “time to formation of the cysteamine fragment” value is recorded as not above 15 min. For the same molecule, the “fate of the JMJD7 C3-hydroxylation product” value on human JMJD7 [5] (standard conditions: 2 μM JMJD7, 10 μM peptide, 2 h) is “fragmentation to form DRG1‐formylglycine and its hydrated products”. In addition, the “time to complete JMJD7-catalyzed hydroxylation” value at human JMJD7 [6] is listed as not above 4 min.
Turning to “ARTQKNSerATAHHLGLLKARLAKLRR [DRG1‐Ser, 25-mer DRG1 (16–40) peptide with Ser at position 22]”, at human JMJD7 [1], the JMJD7-peptide adduct formation result was “Adduct formation was not observed”. Besides, on human JMJD7 [5] (2 μM JMJD7, 10 μM peptide, 10 μM FAS, 100 μM LAA), the “degree of oxidation (+16 Da) of cysteine/methionine analog peptides by JMJD7” value is reported as “did also not undergo oxidation”.
On to “DRG1-LysE peptide (DRG1 residues 16-40, (E)-dehydrolysine in place of Lys22)”, for which the Km of JMJD7-catalysed hydroxylation, steady-state kinetics by SPE-MS (0.1-5.0 μM peptide, 100 nM JMJD7) in assay [7] came to 3.1 µM.
Same read-out and setting: then ARTQKNKATAHHLGLLKARLAKLRR-NH2 [DRG1-Lys substrate peptide (DRG1 residues 16-40)], with 1.4 µM.

Source of the values: publication PMC11400632, “Substrate selectivity and inhibition of the human lysyl hydroxylase JMJD7” (Protein Science : A Publication of the Protein Society, 2024).
